Measured values taken from US20100303896A1, “5BETA, 14BETA-ANDROSTANE DERIVATIVES USEFUL FOR THE TREATMENT OF RESTENOSIS AFTER ANGIOPLASTIC OR ENDOARTHERECTOMY AND DISEASES DUE TO ORGAN FIBROSIS” (SIGMA-TAU INDUSTRIE FARMACEUTICHE RIUNITE S.P.A., priority 2007, published 2010).
Several values for one entry are separate records, joined by “and”; a condition that tells them apart may be missing. Equal values may be shown once. Entries after “also recorded” stand apart in the source; their conditions may differ.

Tests used:
Assay type in all cases: in vivo, rat
[1] = system: spontaneous hypertensive MHS rats; assay: Prevention of restenosis after carotid surgical injury (endoartherectomy model), morphometry of the carotid lumen area
Excerpt: (§1) To test the activity of the compound of the invention for the prevention of restenosis after endoartherectomy, spontaneous hypertensive MHS rats with genetic arterial hypertension (Bianchi G., Barber B. R., Torielli L., Ferrari P. The Milan hypertensive strain of rats. Genetic Model of Hypertension. 1994; 22: 457-460) were used. MHS rats are available at Prassis Research Institute, Sigma-tau, Italy.
After this period rats were subjected to the vascular surgical injury according to the protocol listed below. After surgical injury, rats were maintained under treatment either with vehicle or Rostafuroxin for further 30 days and then sacrificed for carotid artery sampling. […] The final number of rats used for the histological carotid analysis was; MHS vehicle=7, MHS Rostafuroxin=9.
(§2) The carotid surgical injury model used on MHS and MNS rat is described in J. Cell. Physiol. 2001; 186:307-313.
(§3) Briefly, a plastic Scanlon clamp for coronary artery bypass grafting was placed for 10 seconds on the carotid artery in order to cause a crushing lesion to vessel. At the same point where the clamp was applied, a 0.5 mm longitudinal incision was performed on the full thickness of the carotid artery. […] Hemostasis was obtained with a single adventitial 8.0-gauge polypropylene stitch. Once bleeding stopped, the carotid artery was carefully examined and blood pulsation was checked distally to the incision.
Carotid arteries were taken 30 days after injury. […]
(§4) For each injured carotid, at least 60 serial cross-sections were observed under a light microscope at 20× magnification; image screening and photography were performed using Leica IM 1000 System (Leica, Wetzlar, Germany). The sections of injured carotids showing maximal remodelling and proliferative phenomena were identified and further analyzed.
(§5) Lumen and medial areas were measured using the Leica IM 1000 software (Leica, Heerbrugg, Switzerland). […] For each contralateral uninjured carotid, at least 10 sections were analyzed and the average media and lumen areas were calculated. […]

[2] = system: MHS rats with CCl4-induced liver fibrosis; assay: CCl4-induced liver fibrosis: hydroxyproline liver content
Excerpt: as §1, with “prevention and treatment” for “prevention”, “organ fibrosis,” for “restenosis after endoartherectomy,”
Liver fibrosis was induced by CCl4 oral administration as described in J. Hepatol. 1999; 30: 621-631, with minor modifications: 0.375 ml/kg of CCl4 dissolved in olive oil was administered three times per week for three weeks by oral gavage to rats starting from the 7th week after weaning. Control rats received only the vehicle (olive oil). Rostafuroxin treatment started 7 weeks before the induction of liver fibrosis by CCl4 administration (pretreatment) and was continued during the CCl4 treatment for three weeks. Rostafuroxin was orally administered at 1 mg/kg/day, suspended in Methocel (0.5%). A total of twenty four MHS rats of 25 days of age (weaning) were subdivided in three groups of 8 rats each: the first group, considered as negative control for liver fibrosis induction (Ctr.), was orally treated with the Rostafuroxin vehicle (Methocel 0.5%) along the entire period (10 weeks) and received the olive oil as vehicle of CCl4 at the 7th week after weaning for three weeks; the second group, considered as positive control for liver fibrosis (Ctr. LF), was orally treated with the Rostafuroxin vehicle (Methocel 0.5%) along the entire period (10 weeks) and received CCl4 at the 7th week after weaning for three weeks; the third group, Rostafuroxin treated with liver fibrosis (RLF), received Rostafuroxin at 1 mg/kg along the entire period (10 weeks) and received CCl4 at the 7th week after weaning for three weeks. […]
Hydroxyproline liver content was determined as described in Anal. Biochem. 1981; 112: 70-75, with slight modifications.
Liver tissue (0.4 g) was homogenized in 3 ml 6 N HCl and hydrolyzed at 110° C. for 24 h. […] After cooling, the absorbance was measured at 558 nm (Jasco V-530).

[3] = system: MNS rats without arterial hypertension; assay: Prevention of restenosis after carotid surgical injury, morphometry of the carotid lumen area; conditions: 100 μg/kg orally, carotid taken 30 days after injury
Procedure: as §2, §3
Carotid arteries were taken 30 days after injury. Rats were anaesthetized and carotids were dissected free from the surrounding tissues. […]
as §4, §5

[4] = system: MHS rats with CCl4-induced liver fibrosis; assay: CCl4-induced liver fibrosis: quantitative histomorphometric analysis of fibrotic area (Sirius Red, ImageJ)
Excerpt: as §1, with “prevention and treatment” for “prevention”, “organ fibrosis,” for “restenosis after endoartherectomy,”
Liver fibrosis was induced by CCl4 oral administration as described in J. Hepatol. 1999; 30: 621-631, with minor modifications: 0.375 ml/kg of CCl4 dissolved in olive oil was administered three times per week for three weeks by oral gavage to rats starting from the 7th week after weaning. Control rats received only the vehicle (olive oil). Rostafuroxin treatment started 7 weeks before the induction of liver fibrosis by CCl4 administration (pretreatment) and was continued during the CCl4 treatment for three weeks. Rostafuroxin was orally administered at 1 mg/kg/day, suspended in Methocel (0.5%). […]
A quantitative analysis of the degree of fibrosis, following the histological qualitative analysis, was performed by digital imaging conversion of the histological pictures by a previously described method (J. Gastroenterol. 2004, Oct. 1; 10(19)2894-2897).
Briefly, after staining with Sirius Red, liver collagen content was measured by histomorphometric method. […] Each picture was analyzed by computer system ImageJ version 1.39 for digital image analysis. […] The fibrotic area with positive staining were automatically selected, outlined and evaluated. Relative content of collagen was calculated as a percentage of positive staining pixels on the total number of pixels of the picture.

[5] = system: MHS rats with CCl4-induced liver fibrosis; assay: CCl4-induced liver fibrosis: body and organ weights
Excerpt: as §1, with “prevention and treatment” for “prevention”, “organ fibrosis,” for “restenosis after endoartherectomy,”
(§6) Liver fibrosis was induced by CCl4 oral administration as described in J. Hepatol. 1999; 30: 621-631, with minor modifications: 0.375 ml/kg of CCl4 dissolved in olive oil was administered three times per week for three weeks by oral gavage to rats starting from the 7th week after weaning. Control rats received only the vehicle (olive oil). Rostafuroxin treatment started 7 weeks before the induction of liver fibrosis by CCl4 administration (pretreatment) and was continued during the CCl4 treatment for three weeks. Rostafuroxin was orally administered at 1 mg/kg/day, suspended in Methocel (0.5%). A total of twenty four MHS rats of 25 days of age (weaning) were subdivided in three groups of 8 rats each: the first group, considered as negative control for liver fibrosis induction (Ctr.), was orally treated with the Rostafuroxin vehicle (Methocel 0.5%) along the entire period (10 weeks) and received the olive oil as vehicle of CCl4 at the 7th week after weaning for three weeks; the second group, considered as positive control for liver fibrosis (Ctr. LF), was orally treated with the Rostafuroxin vehicle (Methocel 0.5%) along the entire period (10 weeks) and received CCl4 at the 7th week after weaning for three weeks; the third group, Rostafuroxin treated with liver fibrosis (RLF), received Rostafuroxin at 1 mg/kg along the entire period (10 weeks) and received CCl4 at the 7th week after weaning for three weeks. At the end of the treatment (10th week), rats were weighed and anaesthetized with pentobarbital for blood sampling and organ removal. The blood was let clotted and serum separated after centrifugation and saved for measurement of serum albuminemia and transaminases (ALT and AST) on a Pentra 400 (ABX) Automatic Hematology Analyzer. Spleen and liver were removed and weighed. Samples of the liver median lobe were immediately frozen in liquid nitrogen and kept at −80° for further biochemical measurement of the 4-Hydroxiproline liver content, taken as an index of collagen deposition (Biochem. J. 1961; 80(1): 148-154). The rest of the liver was preserved in a 10% buffered formalin solution for the histological analysis.

[6] = system: MHS rats with CCl4-induced liver fibrosis; assay: CCl4-induced liver fibrosis: histopathology and qualitative fibrosis score on Syrius red stained slides; set-up: key to Liver fibrosis score, histological appearance (FIG. 8): 0: Absence of liver fibrosis, but normal staining pattern only; 1: Mild degree, corresponding to centrilobular/periportal fibrosis, with predominantly uncomplete septal expansion—mild focal interstitial fibrosis; 2: Moderate degree, corresponding to diffuse bridging fibrosis, with focal nodular appearance—multifocal interstitial fibrosis; 3: Severe degree, corresponding to confluent fibrosis, with diffuse nodular appearance—severe diffuse interstitial fibrosis
Excerpt: as §1, with “prevention and treatment” for “prevention”, “organ fibrosis,” for “restenosis after endoartherectomy,”
as §6
For each case, the median and the left lobes of the liver were subjected to standard trimming and embedding procedures; slides were stained with Hematoxylin and Eosin (H&E) (Laboratory Methods in Histotechnology; Armed Forces Institute of Pathology Published by the American Registry of Pathology Washington, D.C. 1992). Special techniques were also applied in order to allow proper connective tissue detection (Masson's Trichrome stain—Laboratory Methods in Histotechnology; Armed Forces Institute of Pathology Published by the American Registry of Pathology Washington, D.C. 1992) as well as specific collagen detection and hepatic fibrosis evaluation (Syrius red staining method as described in The Journal of Histochemistry and Citochemistry 1985; vol 33, No. 8, pp. 737-743).
Liver fibrosis was qualitatively scored on Syrius red stained slides as follows:
0=Absence of liver fibrosis, but normal staining pattern only;
1=Mild degree, corresponding to centrilobular/periportal fibrosis, with predominantly uncomplete septal expansion—mild focal interstitial fibrosis;
2=Moderate degree, corresponding to diffuse bridging fibrosis, with focal nodular appearance—multifocal interstitial fibrosis;
3=Severe degree, corresponding to confluent fibrosis,
with diffuse nodular appearance—severe diffuse interstitial fibrosis. […]

[7] = system: MHS rats with CCl4-induced liver fibrosis; assay: CCl4-induced liver fibrosis: serum albuminemia and transaminases (ALT and AST)
Excerpt: as §1, with “prevention and treatment” for “prevention”, “organ fibrosis,” for “restenosis after endoartherectomy,”
as §6

[8] = RLF group, 1 mg/kg os for 10 weeks + CCl4, individual rats, 1 mg/kg
[9] = rats with CCl4-induced liver fibrosis, vs Ctr. LF, statistically significant
[10] = rats with CCl4-induced liver fibrosis, 1 mg/kg os

C[C@]12CC[C@H](O)C[C@H]1CC[C@@H]1[C@@H]2CC[C@]2(C)[C@@](O)(c3ccoc3)CC[C@]12O [Rostafuroxin, 17 beta-(3-Furyl)-5 beta-androstane-3beta, 14 beta, 17 alpha-triol]
Change in arterial restenosis vs vehicle ([1]; MHS rats with arterial hypertension, vs vehicle, statistically significant): −45%
Carotid lumen area, Injured/Uninjured carotid ratio, mean ([1]; MHS rats, 100 μg/kg orally, carotid taken 30 days after injury, group mean (n=9), vehicle mean 0.379): 0.680
Carotid lumen area, Injured/Uninjured carotid ratio ([1]; MHS rats, 100 μg/kg orally, carotid taken 30 days after injury, individual animals): 0.86 and 0.83 and 0.81 and 0.66 and 0.54 and 0.36 and 0.25 and 0.90 and 0.89
Liver hydroxyproline, mean ([2]; RLF group, 1 mg/kg os for 10 weeks + CCl4, group mean (n=8), Ctr. LF mean 1596.45): 1184.9 μg/g prot
Liver hydroxyproline [2, 8]: 886.5 μg/g prot and 791.6 μg/g prot and 1217.4 μg/g prot and 811.0 μg/g prot and 799.8 μg/g prot and 2762.3 μg/g prot and 750.0 μg/g prot and 1460.7 μg/g prot
Reduction of liver content of hydroxyproline ([2]; rats with CCl4-induced liver fibrosis, vs Ctr. LF): 25.8%
Carotid lumen area, Injured/Uninjured carotid ratio, mean ([3]; group mean (n=10), vehicle mean 0.540): 0.765
Carotid lumen area, Injured/Uninjured carotid ratio ([3]; individual animals): 0.93 and 0.83 and 0.80 and 0.76 and 0.75 and 0.68 and 0.59 and 0.36 and 1.00 and 0.95
% FIBROTIC AREA, mean ([4]; RLF group, 1 mg/kg os for 10 weeks + CCl4, group mean (n=8), Ctr. LF mean 10.48): 5.50%
% FIBROTIC AREA [4, 8]: 4.64% and 5.50% and 1.44% and 6.63% and 6.89% and 5.08% and 11.80% and 2.01%
Reduction of liver fibrotic area [4, 9]: 47.5%
Spleen/bw, mean ([5]; RLF group, 1 mg/kg os for 10 weeks + CCl4, group mean (n=8), Ctr. LF mean 0.355): 0.284%
Spleen/bw [5, 8]: 0.251% and 0.316% and 0.261% and 0.262% and 0.247% and 0.302% and 0.348% and 0.288%
Weight of the liver [5, 10]: not modified
Reduction of spleen weight [5, 9]: 20%
Extension of liver tissue damage (histopathology) ([6]; CCl4-treated rats, 1 mg/kg os, compared with Ctr. LF group, 1 mg/kg): minor extension of tissue damage; also recorded: less extended tissue damage
Liver fibrosis Absence (score 0), % of rats ([6]; RLF group, 1 mg/kg OS + CCl4): 0%
Liver fibrosis Absence (score 0), No. of rats ([6]; RLF group, 1 mg/kg OS + CCl4): 0/8
Liver fibrosis Mild (score 1), % of rats ([6]; RLF group, 1 mg/kg OS + CCl4): 75%
Liver fibrosis Mild (score 1), No. of rats ([6]; RLF group, 1 mg/kg OS + CCl4): 6/8
Liver fibrosis Moderate (score 2), % of rats ([6]; RLF group, 1 mg/kg OS + CCl4): 25%
Liver fibrosis Moderate (score 2), No. of rats ([6]; RLF group, 1 mg/kg OS + CCl4): 2/8
Liver fibrosis Severe (score 3), % of rats ([6]; RLF group, 1 mg/kg OS + CCl4): 0%
Liver fibrosis Severe (score 3), No. of rats ([6]; RLF group, 1 mg/kg OS + CCl4, 1 mg/kg): no rats and 0/8
Liver fibrosis score, histological appearance (FIG. 8) ([6]; liver from two CCl4 rats treated at 1 mg/kg os (RLF group)): 1
Albumin, mean ([7]; RLF group, 1 mg/kg os for 10 weeks + CCl4, group mean (n=8), Ctr. LF mean 3.02): 3.53 g/dL
Albumin [7, 8]: 3.65 g/dL and 3.36 g/dL and 4.15 g/dL and 2.95 g/dL and 3.19 g/dL and 3.07 g/dL and 3.82 g/dL and 4.04 g/dL
Transaminases (ALT and AST) [7, 10]: not modified
Increase of plasma levels of albumin [7, 9]: 16.8%
